Test results: PMC9354954, “Assessing Bioavailability and Bioactivity of 4-Hydroxythiazolidine-2-Thiones, Newly Discovered Glucosinolate Degradation Products Formed During Domestic Boiling of Cabbage” (Frontiers in Nutrition, 2022)

Legend:
[1] = target: T1, glycogen synthase kinases-3α (Homo sapiens, UniProt P49840); test: GSK-3 inhibition, Z'-LYTE kinase assay; assay type: biochemical
T1 construct: purchased Life Technologies/Thermo Fisher Scientific, SelectScreen Services (Madison, WI, USA)
Procedure: (§1) The determination of the inhibition of glycogen synthase kinases-3α and -3β by allyl HTT and 4-MSOB HTT was performed via contract research with Life Technologies/Thermo Fisher Scientific by sending the compounds dissolved in 100% DMSO to SelectScreen Services (Madison, WI, USA). The tested concentrations in the Z'-LYTE assay were up to 100 μM and standards were prepared as duplicates. The Z'-LYTE kinase assay is a fluorescence-based assay using a coupled-enzyme format and the different sensitivity of phosphorylated and non-phosphorylated peptides regarding their fluorescence. The data are shown as mean ± SD. Due to the impression of significant bioactivity, further comparisons were performed. […] Stars report different significance levels: ^*p ≤ 0.05, ^**p ≤ 0.01, and ^***p ≤ 0.001.

[2] = Antioxidant potential, DPPH assay; conditions: compared to compound free blank
Procedure: To evaluate the potential of allyl HTT and 4-MSOB HTT to act as antioxidants, ABTS and DPPH were used as model radicals and Trolox as reference antioxidants based on Shalaby and Shanab ([28]). In total, 1.5 mg of ABTS and 0.26 mg potassium peroxodisulfate were dissolved in 4 mL of pure water and incubated in the dark overnight at room temperature. Afterward, 36 mL of MeOH were added to obtain the fresh ABTS working solution. In the case of the DPPH assay, 1.1 mg of DPPH were dissolved in 4 mL of MeOH and incubated for 2 h in the dark at 4°C, followed by the addition of 36 mL of MeOH to obtain the fresh DPPH working solution. Standards of Trolox, allyl HTT, and 4-MSOB HTT were prepared in water/MeOH (90/10, v/v%) at concentrations in the range of 6.25–100 μM. To detect the antioxidant potential, 100 μL of standard or water/MeOH (90/10, v/v%) as control were added to 1,000 μL of ABTS or DPPH working solution, and the extinction was measured directly after mixing and after 6 min of incubation in the dark with a spectrometer (UviLine 9100, Schott Instruments, Mainz, Germany) at 734 nm in the case of ABTS assay and 515 nm in DPPH assay (each prepared as duplicate). The results are reported as mean ± SD of the reduction of the extinction compared to the control.

[3] = target: T2, glycogen synthase kinases-3β (Homo sapiens, UniProt P49841); test: GSK-3 inhibition, Z'-LYTE kinase assay; assay type: biochemical
T2 construct: purchased Life Technologies/Thermo Fisher Scientific, SelectScreen Services (Madison, WI, USA)
Procedure: as §1

T2 sequence (P49841 whole entry): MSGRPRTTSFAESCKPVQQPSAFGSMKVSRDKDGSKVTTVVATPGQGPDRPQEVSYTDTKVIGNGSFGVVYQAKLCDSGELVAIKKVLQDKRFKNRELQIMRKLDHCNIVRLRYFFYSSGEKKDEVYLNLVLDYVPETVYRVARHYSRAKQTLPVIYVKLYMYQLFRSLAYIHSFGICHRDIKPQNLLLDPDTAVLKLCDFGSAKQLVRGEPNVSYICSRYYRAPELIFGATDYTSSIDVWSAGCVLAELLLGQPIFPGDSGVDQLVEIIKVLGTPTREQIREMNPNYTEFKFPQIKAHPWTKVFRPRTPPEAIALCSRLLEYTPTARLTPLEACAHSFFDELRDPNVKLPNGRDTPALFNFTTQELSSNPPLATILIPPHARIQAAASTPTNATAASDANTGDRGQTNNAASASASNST
T1 sequence (P49840 whole entry): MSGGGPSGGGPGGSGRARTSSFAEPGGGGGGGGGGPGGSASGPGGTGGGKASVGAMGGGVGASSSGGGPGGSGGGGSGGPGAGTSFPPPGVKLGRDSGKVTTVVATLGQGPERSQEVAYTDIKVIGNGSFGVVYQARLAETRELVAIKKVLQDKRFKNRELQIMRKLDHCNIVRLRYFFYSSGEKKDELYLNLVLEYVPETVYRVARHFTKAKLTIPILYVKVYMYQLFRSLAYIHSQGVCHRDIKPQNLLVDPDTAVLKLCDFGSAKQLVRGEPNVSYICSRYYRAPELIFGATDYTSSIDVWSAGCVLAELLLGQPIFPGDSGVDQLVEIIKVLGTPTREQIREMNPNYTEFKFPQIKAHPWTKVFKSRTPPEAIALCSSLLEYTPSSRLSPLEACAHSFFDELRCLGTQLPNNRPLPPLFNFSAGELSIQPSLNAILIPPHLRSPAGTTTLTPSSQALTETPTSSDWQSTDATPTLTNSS

SMILES | inhibition at 100 µM [1] [%] | Relative signal reduction of the extinction value of the radical DPPH ([2]; 6.25 µM) [%] | Relative signal reduction of the extinction value of the radical DPPH ([2]; 12.5 µM) [%] | Relative signal reduction of the extinction value of the radical DPPH ([2]; 25 µM) [%] | Relative signal reduction of the extinction value of the radical DPPH ([2]; 50 µM) [%] | Relative signal reduction of the extinction value of the radical DPPH ([2]; 100 µM) [%] | inhibition at 100 µM [3] [%]
C[S+]([O-])CCCCN1C(=S)SCC1O (stereo not drawn) [4-MSOB HTT, 4-hydroxy-3-(4-(methylsulfinyl)butyl)thiazolidine-2-thione] | ~29 | 0.3 ± 0.4 | 0.0 ± 0.3 | 0.3 ± 0.3 | 0.3 ± 0.4 | 0.3 ± 0.4 | –
C=CCN1C(=S)SCC1O (stereo not drawn) [allyl HTT, 3-allyl-4-hydroxythiazolidine-2-thione] | – | 0.2 ± 0.3 | 0.0 ± 0.3 | 0.1 ± 0.3 | 0.1 ± 0.3 | 0.0 ± 0.3 | ~20
